According to paper PMC7775144, “Enzyme Inhibitory Kinetics and Molecular Docking Studies of Halo-Substituted Mixed Ester/Amide-Based Derivatives as Jack Bean Urease Inhibitors” (BioMed Research International, 2020):
Entries after “also recorded” stand apart in the source; their conditions may differ. Read-outs that look alike come from different tables or passages of the source.

Columns and labels:
jack bean urease [1] = target: T1, jack bean urease (Canavalia ensiformis, UniProt P07374); experiment: biochemical; format: biochemical
T1 sequence (P07374 whole entry, looked up): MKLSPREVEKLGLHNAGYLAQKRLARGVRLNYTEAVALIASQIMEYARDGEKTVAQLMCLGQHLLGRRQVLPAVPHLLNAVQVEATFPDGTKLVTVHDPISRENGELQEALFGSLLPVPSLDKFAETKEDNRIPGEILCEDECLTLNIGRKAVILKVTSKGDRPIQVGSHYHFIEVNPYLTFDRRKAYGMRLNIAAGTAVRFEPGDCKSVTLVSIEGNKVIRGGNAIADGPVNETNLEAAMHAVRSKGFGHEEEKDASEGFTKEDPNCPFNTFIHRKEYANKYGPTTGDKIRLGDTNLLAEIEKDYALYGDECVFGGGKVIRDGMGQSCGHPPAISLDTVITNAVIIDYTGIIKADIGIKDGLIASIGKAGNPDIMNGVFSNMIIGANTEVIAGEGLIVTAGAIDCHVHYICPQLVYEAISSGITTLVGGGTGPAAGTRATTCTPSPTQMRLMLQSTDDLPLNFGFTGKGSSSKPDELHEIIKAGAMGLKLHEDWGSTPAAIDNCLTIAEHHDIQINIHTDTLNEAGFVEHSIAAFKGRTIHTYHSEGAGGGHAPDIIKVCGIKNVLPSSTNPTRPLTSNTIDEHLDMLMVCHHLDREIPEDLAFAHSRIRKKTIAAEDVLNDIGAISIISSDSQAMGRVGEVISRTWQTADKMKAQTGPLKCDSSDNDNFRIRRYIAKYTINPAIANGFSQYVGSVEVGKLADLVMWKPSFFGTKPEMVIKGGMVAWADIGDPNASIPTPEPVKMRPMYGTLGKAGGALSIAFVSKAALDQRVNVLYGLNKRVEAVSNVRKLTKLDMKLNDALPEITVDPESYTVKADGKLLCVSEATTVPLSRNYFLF
Description: The inhibitory effects on urease activity were done based on the Weatherburn method, using the indophenol scheme by determining the amount of ammonia produced. Briefly, 20 μL of jack bean urease enzyme (0.135 units) and 20 μL of the tested compounds were taken in 50 μL buffer and were incubated for 30 min. Temperature was kept at 37°C in a 96-well plate reader. The buffer solution was made by 0.01 molar K2HPO4/KH2PO4, 1 mM EDTA, 100 mM urea, and 0.01 M LiCl; pH was maintained at 7.0. Then, 50 μL of phenol reagent (1% w/v phenol and 0.005% w/v sodium nitroprusside) was added in 50 μL of alkali reagent in each well. The alkali reagent was prepared by 0.5% w/v NaOH and 0.1% NaOCl. Absorbance was measured at 625 nm using OPTIMax, a tunable microplate reader, after 10 min interval in a triplicate manner. The thiourea was used as a standard jack bean urease inhibitor. The data has been analyzed using software, GraphPad Prism, and statistical analysis (SD) was performed by using SigmaPlot software to get SD values of the bioassay results.

jack bean urease [2] = target: T1, jack bean urease; experiment: Kinetic study of jack bean urease inhibition (Lineweaver-Burk plots); format: biochemical; parameters: 1/Vmax: unit not given here
Description: The derivative 4b was selected on the basis of its high activity for the determination of its kinetic mechanism on jack bean urease. The enzyme inhibition EI and enzyme-substrate inhibition ESI constants for compound 4b have been determined. The inhibitor concentration used in the kinetic experiments was 0.00, 0.0008, and 0.0016 μM while concentration of substrate was 0.0, 0.1, 0.2, 0.3, and 0.4 mM. The kinetic mechanism was determined by plotting of 1/V versus 1/[S] in the presence of inhibitor concentrations which gave a series of straight lines as shown in Figure 3. […] The EI dissociation constant (Ki) and ESI dissociation constant (Ki′) for compound 4b have also been determined from Lineweaver-Burk plots.

jack bean urease [3] = target: T1, jack bean urease; settings: jack bean urease inhibitors already reported; ref [35], [36]; cited from earlier work
[4] = n = 3, 30 min, 37°C, pH 7.0, 100 mM urea, read-out: Urease (jack bean) inhibition IC50 ± SD

| Molecule | IC50 (jack bean urease [1]; [4]) [nM] | IC50 (jack bean urease [1]) [nM] | melting point [°C] | also measured |
| --- | --- | --- | --- | --- |
| 2-((5-Isopropyl-2-methyl phenyl) Amino)-2-oxoethyl 2-Bromobenzoate [4i] | 21.1 ± 0.7 |  |  |  |
| 2-((5-Isopropyl-2-methyl phenyl) Amino)-2-oxoethyl 3,4-Dichlorobenzoate [4k] | 50.1 ± 1.7 |  |  |  |
| 2-((5-Isopropyl-2-methyl phenyl) Amino)-2-oxoethyl 3-Bromobenzoate [4j] | 2.1 ± 0.1 |  |  | times more active than derivative 4k (jack bean urease [1]; ratio of urease inhibitory activity, 4j versus 4k): 25 |
| CC(C)c1ccc(NC(=O)COC(=O)c2ccccc2Cl)cc1 [4a, 2-((4-Isopropylphenyl)amino)-2-oxoethyl 2-Chlorobenzoate] |  | 57.1 ± 1.9 | 94 to 96 |  |
| CC(C)c1ccc(NC(=O)COC(=O)c2cccc(Cl)c2)cc1 [4b, 2-((4-Isopropylphenyl)amino)-2-oxoethyl 3-Chlorobenzoate] |  | 1.6 ± 0.2 | 96 to 98 | Ki (jack bean urease [2]): 0.7 nM; Inhibition type (jack bean urease [2]; Lineweaver-Burk plots): mixed type of inhibitor; also recorded: mixed type of inhibition; Ki′ (ESI dissociation constant) (jack bean urease [2]; from Lineweaver-Burk plots): 1.8 nM; 1/Vmax (jack bean urease [2]; inhibitor dose 0.0016 μM, substrate urea): 0.00088 |
| CC(C)c1ccc(NC(=O)COC(=O)c2ccc(Cl)c(Cl)c2)cc1 [4c, 2-((4-Isopropylphenyl)amino)-2-oxoethyl 3,4-Dichlorobenzoate] |  | 18.2 ± 0.6 | 107 to 108 |  |
| CC(C)c1ccc(NC(=O)COC(=O)c2ccccc2Br)cc1 [4d, 2-((4-Isopropylphenyl)amino)-2-oxoethyl 2-Bromobenzoate] |  | 3.8 ± 0.2 | 89 to 90 |  |
| CC(C)c1ccc(NC(=O)COC(=O)c2cccc(Br)c2)cc1 [4e, 2-((4-Isopropylphenyl)amino)-2-oxoethyl 3-Bromobenzoate] |  | 62.7 ± 2.1 | 91 to 92 |  |
| CC(C)c1ccc(NC(=O)COC(=O)c2ccccc2I)cc1 [4f, 2-((4-Isopropylphenyl)amino)-2-oxoethyl 2-Iodobenzoate] |  | 31.2 ± 1.1 | 91 to 92 |  |
| Cc1ccc(C(C)C)cc1NC(=O)COC(=O)c1ccccc1Cl [4g, 2-((5-Isopropyl-2-methylphenyl) Amino)-2-oxoethyl 2-Chloro Benzoate] |  | 3.8 ± 0.2 | 115 to 116 |  |
| Cc1ccc(C(C)C)cc1NC(=O)COC(=O)c1ccccc1I [4l, 2-((5-Isopropyl-2-methylphenyl) Amino)-2-oxoethyl 2-Iodobenzoate] |  | 11.5 ± 3.9 |  |  |
| NC(N)=S [Thiourea, thiourea, reference compound] | 472 ± 135 |  |  |  |
| Cc1ccc(C(=O)NC(=S)Nc2coc(=O)c3ccccc23)cc1 [compound 2] |  |  |  | IC50 (jack bean urease [3]): 6.5 nM |
